According to US20240294478A1, “ANTI-CANCER COMPOUNDS AND METHODS OF USE” (YALE UNIVERSITY, priority 2021, published 2024):

Assays:
[1] = test system: linearized pUC19 plasmid DNA; assay: Melting temperature assay; assay type: biochemical; conditions: 100 or 500 μM for 3 h
Protocol: Columns, mean; error bars, SD; n=2 independent analyses. For (A) and (C), points, mean; error bars, SD; n=3 technical replicates.
Melting Temperature Assay. Linearized pUC19 DNA (750 ng), prepared as described above, was incubated with the indicated concentration of either MMS or KL-50 adjusted in a final volume of 18 μL in 100 mM Tris buffer (pH 7.4) for 3 h. Drug stock concentrations were made in DMSO such that each reaction contained a fixed 5% DMSO concentration. Afterwards, 1 μL each of 20×SYBR Green dye (Invitrogen) and 20×ROX reference dye (Invitrogen) was added and melting temperature analysis was run on a StepOnePlus RT PCR System (Applied Biosciences) to generate melting temperature curves.

[2] = test system: PD20 cells, deficient in FANCD2 (FANCD2−/−) or complemented with FANCD2; assay: Short-term viability assay, PD20 cells; assay type: cell-based, human; conditions: PD20 FANCD2−/− vs +FANCD2
Protocol: (§1) FIGS. 8A-8K. (FIG. 8A) Change in percent cells with 1 micronuclei from baseline (DMSO control) after treatment as in FIGS. 5A and 5C. […] (FIG. 8B) Short-term viability assay curves for KL-50 in PD20 cells, deficient in FANCD2 (FANCD2−/−) or complemented with FANCD2 (+FANCD2). (FIG. 8C) Short-term viability assay curves for KL-50 in PEO4 (BRCA2+) and PEO1 (BRCA2−/−) cells pre-treated with 0.01% DMSO control or 10 μM O^6BG (+O^6BG) for 1 h prior to KL-50 addition. (FIG. 8D) Short-term viability assay curves for KL-50 in DLD1 BRCA2+/− and BRCA2−/−cells pre-treated with 0.01% DMSO control or 10 μM O^6BG (+O^6BG) for 1 h prior to KL-50 addition. For FIGS. 8B-8D, points, mean; error bars, SD; n=3 technical replicates. […] Change in percent cells with 1 micronuclei from baseline (DMSO control) after treatment with olaparib (10 μM) for 48 h in LN229 MGMT+/−, MMR+/−cells. […] Western blot analysis of FANCD2 ubiquitination in LN229 MGMT+/−, MMR+/−cells and PD20 FANCD2-deficient cells, complemented with empty vector (FANCD2+EV), wildtype FANCD2 (PD20+FD2) or ubiquitination-mutant FANCD2 (PD20+KR). The % FANCD2 ubiquitination (% FANCD2 Ub) is quantified as the background-corrected integrated band intensity of the upper band divided by the sum of the background-corrected integrated band intensities of the upper and lower bands. The fold change in % FANCD2 ubiquitination is presented for each cell line relative to DMSO-treated cells. Vinculin serves as loading control. For 8J-8K, points, mean; error bars, SD; n=3 technical replicates.
(§2) Short-term Cell Viability Assay. Cells were seeded in 96-well plates at 1000 or 2000 cells/well and allowed to adhere at 23° C. for 60 min and then incubated overnight at 37° C. […] Cells were imaged on a Cytation 3 imaging reader (BioTek) and quantified using CellProfiler software. For in vitro short-term growth delay experiments, IC50 values were determined from the nonlinear regression equation, [inhibitor] vs normalized response with variable slope.

[3] = test system: DLD1 BRCA2+/− and BRCA2−/− cells; assay: Short-term viability assay, DLD1 BRCA2 isogenic model +/- O6BG; assay type: cell-based, human; conditions: DLD1 isogenic model
Protocol: as §1, §2

[4] = test system: PEO4 (BRCA2+) and PEO1 (BRCA2−/−) cells; assay: Short-term viability assay, PEO1/PEO4 model +/- O6BG; assay type: cell-based, human; conditions: PE01/4 model
Protocol: FIGS. 8A-8K. (FIG. 8A) Change in percent cells with 1 micronuclei from baseline (DMSO control) after treatment as in FIGS. 5A and 5C. […] (FIG. 8B) Short-term viability assay curves for KL-50 in PD20 cells, deficient in FANCD2 (FANCD2−/−) or complemented with FANCD2 (+FANCD2). (FIG. 8C) Short-term viability assay curves for KL-50 in PEO4 (BRCA2+) and PEO1 (BRCA2−/−) cells pre-treated with 0.01% DMSO control or 10 μM O^6BG (+O^6BG) for 1 h prior to KL-50 addition. (FIG. 8D) Short-term viability assay curves for KL-50 in DLD1 BRCA2+/− and BRCA2−/−cells pre-treated with 0.01% DMSO control or 10 μM O^6BG (+O^6BG) for 1 h prior to KL-50 addition. For FIGS. 8B-8D, points, mean; error bars, SD; n=3 technical replicates. […] The % FANCD2 ubiquitination (% FANCD2 Ub) is quantified as the background-corrected integrated band intensity of the upper band divided by the sum of the background-corrected integrated band intensities of the upper and lower bands. […]
as §2, with “Assay.” for “Assay. Cells were seeded in 96-well plates at 1000 or 2000 cells/well and allowed to adhere at 23° C. for 60 min and then incubated overnight at 37° C.”

In the case of COS(C)(=O)=O [MMS, Methylmethane sulfonate, reference compound], the “change in DNA melting temperature” value [1] is reported as “comparable changes in measured DNA melting temperature”.
With N.N.[Cl][Pt][Cl] [cisplatin, reference compound] the “sensitivity of FANCD2-deficient cells” value [2] was “hypersensitivity to crosslinking agents in FANCD2−/−cells”, the “therapeutic index (TI), ratio of IC50 values in MGMT+/BRCA2+ cells compared to MGMT−/BRCA2− cells” value [3] was 42 fold and the “therapeutic index (TI)” value [4] was 13 fold.
